This note sets out measurements from US7119182B1 (The Regents of the University of California, priority 1991, dated 2006).

Positions count from the first letter of the chain named. pIC50: −log10 of the molar value. Square brackets hold non-standard residues; d marks the D form. Peptide text beside a SMILES is read from it. Cha = N[C@@H](CC1CCCCC1)C(=O)O; Mpa = O=C(O)CCS Bounds are passed on as bounds.

One experiment relates to CCL-39 cells. Put plainly: Mitogenic effect, tritiated thymidine incorporation in CCL-39 fibroblasts. To be noted: 100 μM, 48 hours, quiescent CCL-39 in serum-free medium; FIG. 5. Format: cell-based, hamster. As for the experimental part:
The fibroblast cell line CCL-39 was made quiescent in serum-free medium and then treated for 48 hours with the candidate agonist in the presence of tritiated thymidine. The incorporation of label into DNA was then determined as TCA-insoluble activity, shown as cpm in FIG. 5 using standard techniques. The data shown in the figure represent the mean of six replicate determinations plus or minus 95% confidence.

Experiment [1] deals with T1, washed human platelets (Homo sapiens, UniProt P25116).
T1 sequence (P25116 42-425): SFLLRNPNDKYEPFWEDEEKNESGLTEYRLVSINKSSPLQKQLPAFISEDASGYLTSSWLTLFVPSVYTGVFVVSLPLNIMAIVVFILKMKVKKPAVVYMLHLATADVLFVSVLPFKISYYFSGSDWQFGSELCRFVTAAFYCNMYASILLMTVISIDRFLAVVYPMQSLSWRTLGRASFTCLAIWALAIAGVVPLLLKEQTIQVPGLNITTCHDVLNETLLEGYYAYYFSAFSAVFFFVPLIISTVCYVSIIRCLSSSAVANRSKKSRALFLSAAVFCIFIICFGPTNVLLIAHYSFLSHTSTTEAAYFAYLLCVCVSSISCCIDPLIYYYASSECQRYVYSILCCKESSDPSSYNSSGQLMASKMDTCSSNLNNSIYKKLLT
Briefly: Platelet ATP secretion in response to agonist peptide. Format: cell-based. To be noted: for Platelet ATP secretion activity of control peptides: concentrations as high as 200 μM (not shown). On the procedure: (§1) About 20 μl Chromolume® reagent (Chronolog Corporation, Havertown, Pa.) is added. In addition to measuring aggregation, ATP secretion is assessed. […] Platelet ATP secretion is measured in a lumiaggregometer as luminescence signal. […] Preincubation is not necessary for testing agonists or antagonists which interact directly with the receptor.
Washed human platelets were prepared as described by Baenzinger, N. G., Meth Enz (1974) 31:149–155; and Charo, I. F., et al., J Clin Invest (1977) 63:866–873. Agonist-induced responses were assessed as described above.
Platelet ATP secretion in response to the indicated final concentrations of “new amino-terminal” peptide was also followed by lumiaggregometry, and the results are shown in FIG. 4.
The data shown in FIG. 4 are raw tracings representative of aggregation or secretion responses obtained in triplicate for each agonist concentration, and are representative of results obtained in more than five separate experiments.

In a further experiment the test system is uninjected oocytes. Put plainly: Agonist activity on uninjected oocytes. It counts as cell-based, Xenopus laevis. To be noted: uninjected oocytes (not shown). On the procedure:
(§2) Briefly, intracellular calcium pools are labeled by incubating groups of 30 oocytes in 300 μl calcium-free MBSH containing 50 μCi ^45CaCl2 (10–40 mCi/mg Ca; Amersham) for 4 hours at RT. The labeled oocytes are washed, then incubated in MBSH II without antibiotics for 90 minutes. Groups of 5 oocytes are selected and placed in individual wells in a 24-well tissue culture plate (Falcon 3047) containing 0.5 ml/well MBSH II without antibiotics. This medium is removed and replaced with fresh medium every 10 minutes; the harvested medium is analyzed by scintillation counting to determine ^45Ca released by the oocytes during each 10-minute incubation. The 10-minute incubations are continued until a stable baseline of ^45Ca release per unit time is achieved. Two additional 10-minute collections are obtained, then test medium including agonist is added and agonist-induced ^45Ca release determined.
(§3) The control peptide […] (FSLL peptide) (SEQ ID NO:107) was added at 100 μM and elicited no response.
The agonist SFLL peptide has no activity on uninjected oocytes (not shown). Qualitatively identical results were obtained when agonist-induced inward current in voltage-clamped oocytes was used as an endpoint rather than agonist-induced ^45Ca release.

Experiment [2] concerns the target T1, washed human platelets. To be noted: for Platelet aggregation activity of control peptides: concentrations as high as 200 μM (not shown).
Experiment [3] deals with T2, wild-type thrombin receptor (Homo sapiens, UniProt P25116, C364S/L238V).
T2 construct: expressed in transfected cells; host or cells: Xenopus laevis oocytes microinjected with cRNA
T2 sequence (P25116 22-425 L238V/C364S): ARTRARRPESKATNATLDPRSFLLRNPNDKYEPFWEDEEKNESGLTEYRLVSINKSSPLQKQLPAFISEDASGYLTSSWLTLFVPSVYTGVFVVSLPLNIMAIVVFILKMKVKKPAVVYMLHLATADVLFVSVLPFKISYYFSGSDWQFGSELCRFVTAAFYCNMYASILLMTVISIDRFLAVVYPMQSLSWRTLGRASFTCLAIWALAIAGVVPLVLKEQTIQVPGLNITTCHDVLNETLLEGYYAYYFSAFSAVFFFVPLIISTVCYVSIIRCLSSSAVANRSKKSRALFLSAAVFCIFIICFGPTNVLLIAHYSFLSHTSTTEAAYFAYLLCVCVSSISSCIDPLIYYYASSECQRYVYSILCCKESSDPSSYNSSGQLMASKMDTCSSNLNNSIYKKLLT
Briefly: ^45Ca release by oocytes expressing wild-type thrombin receptor cRNA. Format: cell-based. The settings on record: control peptide added at 100 μM. As for the experimental part:
as §2, §3

In the next experiment the target is thrombin (Homo sapiens, UniProt P00734). Put plainly: Inhibition of thrombin-induced platelet activation (ATP secretion) by thrombin inhibitor peptides. It counts as cell-based. On the procedure: as §1
Three antagonist peptides of the invention […] (LDPRP peptide) (SEQ ID NO:74), F^†[…] (F^†PRP peptide) (SEQ ID NO:224) and […] (shortened LDPRP peptide) (SEQ ID NO:190), were tested for their ability to inhibit thrombin-induced platelet activation. […] The mixtures were added in a total volume of 20 μl phosphate buffered saline to 480 μl of platelets prepared and suspended as described in the description under the heading “Assays” hereinabove. Various concentrations of the candidate peptides were used.

Another experiment has as its target T3, thrombin receptor (Homo sapiens, UniProt P25116).
T3 construct: In this assay, washed human platelets are prepared by the method of Baenzinger; endogenous in cells; host or cells: washed human platelets
T3 sequence (P25116 22-425): T2 sequence (P25116 22-425 L238V/C364S) with V217L, S343C
Put plainly: Platelet activation/aggregation assays in the presence of thrombin, antagonist peptides. Format: cell-based. The settings on record: read-out: IC50 (50% inhibition of activation or aggregation). On the procedure: Platelet Aggregation: In this assay, washed human platelets are prepared by the method of Baenzinger, M. G., Meth Enzymol (1974) 31:149–155, or as described by Charo, I. F., et al., J Clin Invest (1977) 63:866–873.
Washed platelets are suspended in modified Tyrode's buffer, pH 7.4 with 2 mM magnesium and 1 mM calcium at a concentration of 10^8 platelets/ml.
as §1
Platelet Aggregation Assay Using Microtiter Plates: Thrombin- or agonist-mediated platelet aggregation as measured with washed platelets in 96-well microtiter plates was performed as described (Fratantoni, J. C. et al., Am J Clin Pathol (1990) 94:613–617).

Regarding SFLLRNPNDKYEPF [“SFLL” peptide], in the experiment on CCL-39 cells, the “mitogenic effect (tritiated thymidine incorporation into DNA)” value is listed as “significant stimulation of growth”. Also, in the experiment with washed human platelets [1] (peptide at 100 μM, FIG. 4), the “Platelet ATP secretion compared with thrombin” value is on record as “comparably active to 20 μM thrombin”. For the same compound, in the experiment with uninjected oocytes, the “agonist activity on uninjected oocytes” value is on record as “no activity”. The “Platelet aggregation compared with thrombin” value with washed human platelets [2] (peptide at 100 μM, FIG. 4) was “comparably active to 20 μM thrombin”.

Turning to FSLLRNPNDKYEPF [FSLL peptide], the “Platelet ATP secretion activity of control peptides” value with washed human platelets [1] is listed as “without activity”. In experiment [3], the “peptide-induced ^45Ca release response” value is “no response”. Also, the “Platelet aggregation activity of control peptides” value with washed human platelets [2] is “without activity”.

As to `CC(C)C[C@H](NC(=O)[C@H](CC(C)C)NC(=O)[C@H](Cc1ccccc1)NC(=O)[C@@H]1CCCN1C(=O)[C@H](CCCNC(=N)N)NC(=O)[C@@H]1CCCN1C(=O)[C@H](N)Cc1ccccc1)C(=O)N[C@@H](CCCNC(=N)N)C(=O)N[C@@H](CC(N)=O)C(=O)N1CCC[C@H]1C(=O)N[C@@H](CC(N)=O)C(=O)N[C@@H](CC(=O)O)C(=O)N[C@@H](CCCCN)C(=O)N[C@@H](Cc1ccc(O)cc1)C(=O)N[C@@H](CCC(=O)O)C(=O)N1CCC[C@H]1C(=O)N[C@@H](Cc1ccccc1)C(=O)N[C@@H](Cc1c[nH]c2ccccc12)C(=O)N[C@@H](CCC(=O)O)C(=O)N[C@@H](CC(=O)O)C(=O)N[C@@H](CCC(=O)O)C(=O)N[C@@H](CCC(=O)O)C(=O)N[C@@H](CCCCN)C(=O)N[C@@H](CC(N)=O)C(=O)N[C@@H](CCC(=O)O)C(=O)N[C@@H](CO)C(=O)O` [F^†PRP peptide] (H-[dF]PRPFLLRNPNDKYEPFWEDEEKNES-OH), the pIC50 (usually the negative decadic logarithm of the IC50, by convention in mol/L) on thrombin was roughly 6.70.

For the compound `N=C(N)NCCC[C@H](NC(=O)[C@H](CC1CCCCC1)NC(=O)[C@H](CC1CCCCC1)NC(=O)[C@H](Cc1ccccc1)NC(=O)CCS)C(=O)N[C@@H](CC(N)=O)C(=O)N1CCC[C@H]1C(=O)N[C@@H](CC(N)=O)C(=O)N[C@@H](CC(=O)O)C(=O)N[C@@H](CCCCN)C(=O)N[C@@H](Cc1ccc(O)cc1)C(=O)O` [Mpr-F(Cha) (Cha)RNPNDKY] ([Mpa]F[Cha][Cha]RNPNDKY-OH), the pIC50 at thrombin receptor was 4.40.

On to LLRNPNDKYEPF [reference compound], for which, in the experiment with washed human platelets [1], the “Platelet ATP secretion activity of control peptides” value was “without activity”. In the experiment with washed human platelets [2], the “Platelet aggregation activity of control peptides” value is “without activity”.

In the case of `CC(C)C[C@H](NC(=O)[C@H](Cc1ccccc1)NC(=O)CCS)C(=O)N[C@@H](CC(C)C)C(=O)N[C@@H](CCCNC(=N)N)C(=O)N[C@@H](CC(N)=O)C(=O)N1CCC[C@H]1C(=O)N[C@@H](CC(N)=O)C(=O)N[C@@H](CC(=O)O)C(=O)N[C@@H](CCCCN)C(=O)O` ([Mpa]FLLRNPNDK-OH), the pIC50 at thrombin receptor is 4.10.

For the compound `C[C@H](NC(=O)[C@H](CC(N)=O)NC(=O)[C@H](CCCNC(=N)N)NC(=O)[C@H](CC1CCCCC1)NC(=O)[C@H](CC1CCCCC1)NC(=O)[C@H](Cc1ccccc1)NC(=O)CCS)C(=O)N[C@@H](CC(N)=O)C(=O)N[C@@H](CC(=O)O)C(=O)N[C@@H](CCCCN)C(N)=O` [Mpr-F(Cha) (Cha)RNANDK-NH2] ([Mpa]F[Cha][Cha]RNANDK-NH2), at thrombin receptor, the pIC50 was 4.12.

On to `N=C(N)NCCC[C@H](NC(=O)[C@H](CC1CCCCC1)NC(=O)[C@H](CC1CCCCC1)NC(=O)[C@H](Cc1ccccc1)NC(=O)CCS)C(=O)N[C@@H](CC(N)=O)C(=O)N1CCC[C@H]1C(=O)N[C@@H](CC(N)=O)C(=O)N[C@@H](CC(=O)O)C(N)=O` [Mpr-F(Cha) (Cha)RNPND-NH2] ([Mpa]F[Cha][Cha]RNPND-NH2), for which the pIC50 on thrombin receptor is 4.30.

On to `C[C@H](NC(=O)[C@H](CC(N)=O)NC(=O)[C@@H]1CCCN1C(=O)[C@H](CC(N)=O)NC(=O)[C@H](CCCNC(=N)N)NC(=O)[C@H](CC1CCCCC1)NC(=O)[C@H](CC1CCCCC1)NC(=O)[C@H](Cc1ccccc1)NC(=O)CCS)C(=O)N[C@@H](CCCCN)C(N)=O` [Mpr-F(Cha) (Cha)RNPNAK-NH2] ([Mpa]F[Cha][Cha]RNPNAK-NH2), for which, at thrombin receptor, the pIC50 was less than 4.00.
